{
  "source": "paper PMC10721329",
  "about": "“Quisinostat is a brain-penetrant radiosensitizer in glioblastoma” (JCI Insight, 2023)",
  "key": {"BT145 cells": {"tested_on": "BT145 cells", "experiment": "QST + IR sulforhodamine B cytotoxicity assay", "assay_type": "cell-based, human", "details": "replicates", "experimental": "(§1) There is preclinical evidence that HDACis may be effective in enhancing the sensitivity of tumor cells to IR therapy ([24], [28]–[31]). We hypothesized that the accumulation of DNA damage induced by QST, in combination with IR, may synergistically reduce GSC viability. To examine this hypothesis, we treated 2 cell lines (BT145 and GB126) with increasing nanomolar doses of QST (10–1000 nM) and increasing doses of IR (2–4 Gy) (Figure 4, A and B). […] We then analyzed our combinatorial dose-response cell viability data using SynergyFinder, an application that assigns synergy scores using various major reference models ([32]).\n(§2) GSCs were seeded in laminin-coated tissue culture–treated 96-well plates (clear bottom, white plate; Corning) at a density of 1000–5000 cells per well (cell line dependent) in GSC media. U87-MG were seeded using their normal growth conditions without laminin (10% bovine calf serum in DMEM). All cells were incubated at 37°C and allowed to adhere overnight. The next day, cells were treated with incremental concentrations of QST (Selleckchem; 0, 10, 25, 50, 100, 250, 500, and 1000 nM) diluted in media. Cells treated without QST were treated with DMSO diluted in media. Following treatment with QST, cells were grown for 3 to 5 days (cell line dependent), and cell viability was measured and quantified. All cell viability measurements were performed using the CellTiter-Glo luminescent cell viability assay (Promega) following the manufacturer’s instructions. For the sulforhodamine B colorimetric assay for cytotoxicity, the protocol was performed as described elsewhere ([33]). All cell viability results represent the mean of at least 3 biological replicates, each containing 3 technical replicates."}, "GB126 cells": {"tested_on": "GB126 cells", "experiment": "QST + IR sulforhodamine B cytotoxicity assay", "assay_type": "cell-based, human", "details": "replicates", "experimental": "as §1, §2"}, "[1]": {"experiment": "Total and unbound QST in tumor and contralateral brain, short-term treatment, orthotopic GB126 PDX", "assay_type": "in vivo", "experimental": "To establish the PK-PD correlation and efficacy in an orthotopic patient-derived xenograft (PDX) model of GBM, we implanted GB126 cells in the brains of athymic nude mice and began treatment once the tumors started growing exponentially. Tumor-bearing mice were treated with QST (10 mg/kg), with or without IR, on a MWF schedule (Figure 7A). As described above, IR was delivered locally to the brain in 2-Gy fractions 2 hours after being dosed with vehicle solution or QST, for a cumulative delivery of 6 Gy. To assess acute PD effects and drug levels after short-term QST treatment (1 week, 3 doses total), 10 mice from each experimental cohort were sacrificed 3 hours after receiving the third dose of vehicle solution or QST (Figure 7A). Plasma, tumors, and brain tissue contralateral to the tumors were collected and processed for PK and PD analyses. […] To assess PD modulation, we homogenized brain tumors to obtain whole-tissue protein lysates from each mouse and quantified changes in histone H3 acetylation levels using immunoblotting.\nQST concentrations in specimens were measured using reverse-phase LC on the AB SCIEX QTRAP6500+ LC-MS/MS system by operating electrospray in the positive ion mode. For liquid chromatographic separation, gradient elution was performed using a Phenomenex Kinetex F5 100 Å column (100 × 2.1 mm, 2.6 μm). The initial composition of the mobile phase was 70% phase A (0.1% formic acid in water) and 30% phase B (0.1% formic acid in 1:1 acetonitrile/methanol) with a 0.35 mL/min flow rate. […] The total run time was 3.5 minutes. The internal standard used in this study was D8-infigratinib. […] LC-MS/MS analysis was performed using an Analyst 1.7 Chromatographic Data System. See Supplemental Methods for detailed PK experiments.\nGy on MWF for a total of 6 Gy in the first week of treatment. Treatment groups included vehicle (50% PEG-3000), QST (10 mg/kg) alone, 6 Gy whole-brain IR treatment with vehicle, and 6 Gy whole-brain IR treatment with 10 mg/kg QST. QST was administered to mice through intraperitoneal injections two hours prior to whole-brain radiation treatment. […]\nFor short-term PK-PD correlation studies, tumor-bearing mice were randomized into groups and underwent a single week of treatment with QST (10 mg/kg) on MWF. For mice receiving IR treatment with or without QST, mice were treated with 2 Gy on MWF for a total of 6 Gy. QST was administered to mice through intraperitoneal injections 2 hours before whole-brain radiation treatment. On the third and last day of treatment, mice were sacrificed and processed for PD and PK analyses 3 hours after administration of QST or vehicle. For PD analyses, the mice were euthanized with isoflurane, and the tumors were dissected out of the brain and flash-frozen for subsequent analysis through Western blotting and RNA sequencing.\nTissue from the hemisphere contralateral to the tumor was also collected as a normal brain/nontumor reference sample. For PK analyses, the mice were anesthetized with isoflurane, and at least 300 μL of blood was drawn from the right ventricle of the heart. The blood was collected in tubes containing 10 μL of 0.1 M KOH in EDTA to prevent blood coagulation. Blood samples were immediately centrifuged at 3000 rpm for 10 minutes at 4 °C to allow separation of plasma. After collection of the blood, the tumor was dissected out of the brain and flash -frozen."}, "[2]": {"details": "Quisinostat log[nm] 1, 0 Gy, control 0 Gy = 1"}, "[3]": {"details": "Quisinostat log[nm] 1.39794, 0 Gy"}, "[4]": {"details": "Quisinostat log[nm] 1.39794, 2 Gy"}, "[5]": {"details": "Quisinostat log[nm] 1.39794, 4 Gy"}, "[6]": {"details": "Quisinostat log[nm] 1.69897, 0 Gy"}, "[7]": {"details": "Quisinostat log[nm] 1.69897, 2 Gy"}, "[8]": {"details": "Quisinostat log[nm] 1.69897, 4 Gy"}, "[9]": {"details": "acute treated tumors, individual mice"}},
  "note": "“And” between values parts separate entries of the source, which are not always exact repeats. Equal entries are not always repeated. Where two headings read alike, the source gives them in different places.",
  "data": [
    {"smiles": "Cn1cc(CNCC2CCN(c3ncc(C(=O)NO)cn3)CC2)c2ccccc21", "note": "[QST, quisinostat]", "values": [
      {"measurement": "SRB assay, relative signal", "setting": "BT145 cells; [2]", "value": "0.6967 and 0.6385 and 0.6781"},
      {"measurement": "SRB assay, relative signal", "setting": "BT145 cells; Quisinostat log[nm] 1, 2 Gy", "value": "0.3422 and 0.2636 and 0.3938"},
      {"measurement": "SRB assay, relative signal", "setting": "BT145 cells; Quisinostat log[nm] 1, 4 Gy", "value": "0.2576 and 0.2273 and 0.1797"},
      {"measurement": "SRB assay, relative signal", "setting": "BT145 cells; [3]", "value": "0.5611 and 0.5715 and 0.6072"},
      {"measurement": "SRB assay, relative signal", "setting": "BT145 cells; [4]", "value": "0.3016 and 0.237 and 0.3379"},
      {"measurement": "SRB assay, relative signal", "setting": "BT145 cells; [5]", "value": "0.251 and 0.1999 and 0.186"},
      {"measurement": "SRB assay, relative signal", "setting": "BT145 cells; [6]", "value": "0.3909 and 0.4995 and 0.4801"},
      {"measurement": "SRB assay, relative signal", "setting": "BT145 cells; [7]", "value": "0.2862 and 0.2318 and 0.3442"},
      {"measurement": "SRB assay, relative signal", "setting": "BT145 cells; [8]", "value": "0.2294 and 0.2058 and 0.1789"},
      {"measurement": "SRB assay, relative signal", "setting": "BT145 cells; Quisinostat log[nm] 2, 0 Gy", "value": "0.4525 and 0.4659 and 0.3488"},
      {"measurement": "SRB assay, relative signal", "setting": "BT145 cells; Quisinostat log[nm] 2, 2 Gy", "value": "0.304 and 0.2255 and 0.2864"},
      {"measurement": "SRB assay, relative signal", "setting": "BT145 cells; Quisinostat log[nm] 2, 4 Gy", "value": "0.2104 and 0.1978 and 0.1926"},
      {"measurement": "SRB assay, relative signal", "setting": "GB126 cells; [2]", "value": "0.6958 and 0.7271 and 0.697"},
      {"measurement": "SRB assay, relative signal", "setting": "GB126 cells; Quisinostat log[nm] 1, 2 Gy", "value": "0.4678 and 0.5322 and 0.5047"},
      {"measurement": "SRB assay, relative signal", "setting": "GB126 cells; Quisinostat log[nm] 1, 4 Gy", "value": "0.3918 and 0.337 and 0.3993"},
      {"measurement": "SRB assay, relative signal", "setting": "GB126 cells; [3]", "value": "0.6332 and 0.6836 and 0.5963"},
      {"measurement": "SRB assay, relative signal", "setting": "GB126 cells; [4]", "value": "0.4122 and 0.4783 and 0.4726"},
      {"measurement": "SRB assay, relative signal", "setting": "GB126 cells; [5]", "value": "0.3723 and 0.2821 and 0.3826"},
      {"measurement": "SRB assay, relative signal", "setting": "GB126 cells; [6]", "value": "0.574 and 0.5854 and 0.5737"},
      {"measurement": "SRB assay, relative signal", "setting": "GB126 cells; [7]", "value": "0.3752 and 0.4419 and 0.4352"},
      {"measurement": "SRB assay, relative signal", "setting": "GB126 cells; [8]", "value": "0.3383 and 0.2983 and 0.3763"},
      {"measurement": "SRB assay, relative signal", "setting": "GB126 cells; Quisinostat log[nm] 2, 0 Gy", "value": "0.4806 and 0.4569 and 0.5515"},
      {"measurement": "SRB assay, relative signal", "setting": "GB126 cells; Quisinostat log[nm] 2, 2 Gy", "value": "0.3411 and 0.3753 and 0.4318"},
      {"measurement": "SRB assay, relative signal", "setting": "GB126 cells; Quisinostat log[nm] 2, 4 Gy", "value": "0.3084 and 0.2397 and 0.3383"},
      {"measurement": "UNBOUND [QST], Brain", "setting": "[1]; acute treated tumor-bearing mice, individual mice", "value": "1.55 nM and 0.424 nM and 0.84 nM and 2.425 nM and 1.0975 nM"},
      {"measurement": "concentration at 3 h", "setting": "[1]; acute treated tumor-bearing mice, individual mice, read-out: TOTAL [QST], brain", "value": "31 nM and 8.48 nM and 48.5 nM and 21.95 nM"},
      {"measurement": "TOTAL [QST], tumor", "setting": "[1]; [9]", "value": "634.32 nM and 1029.61 nM and 23.89 nM and 646.61 nM and 605.65 nM"},
      {"measurement": "UNBOUND [QST], Tumor", "setting": "[1]; [9]", "value": "31.716 nM and 51.4805 nM and 1.1945 nM and 32.3305 nM and 30.2825 nM"},
      {"measurement": "concentration at 3 h", "setting": "[1]; athymic nude, mouse, brain tissue contralateral to the tumor, intraperitoneal, 10 mg/kg, acute treated tumor-bearing mice, mean, read-out: Total QST, brain, mean", "value": 25.4, "unit": "nM"},
      {"measurement": "concentration at 3 h", "setting": "[1]; athymic nude, mouse, brain tissue contralateral to the tumor, intraperitoneal, 10 mg/kg, acute treated tumor-bearing mice, mean, read-out: Unbound QST, brain, mean", "value": 1.27, "unit": "nM"},
      {"measurement": "concentration at 3 h", "setting": "[1]; athymic nude, mouse, brain tumor (orthotopic GB126 xenograft), intraperitoneal, 10 mg/kg, acute treated tumors, mean, read-out: Total QST, tumor, mean", "value": 588, "unit": "nM"},
      {"measurement": "concentration at 3 h", "setting": "[1]; athymic nude, mouse, brain tumor (orthotopic GB126 xenograft), intraperitoneal, 10 mg/kg, acute treated tumors, mean, read-out: Unbound QST, tumor, mean", "value": 29.4, "unit": "nM"},
      {"measurement": "concentration at 3 h", "setting": "[1]; athymic nude, mouse, in vivo, 10 mg/kg, acute treated tumor-bearing mice, individual mice, read-out: TOTAL [QST], brain", "value": 16.8, "unit": "nM"}
    ]}
  ]
}
